Data reported in patent US9993494B2, “Compositions and methods for treating fibrotic disease” (eFFECTOR Therapeutics, Inc., priority 2014, dated 2018).

Tested on: normal human lung fibroblasts
Assay: Ribosomal profiling: translational efficiency in TGFβ-treated fibroblasts
Format: cell-based
Details: TGFβ-treated fibroblasts
Procedure, shortened: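 Genome-wide RPF and total RNA libraries (ARTseq, RNA-Seq) were made from lysates of cycloheximide-treated, PBS-washed cells. After trimming and human-genome mapping, per-gene coding-region counts were compared between RPF and RNA for translational efficiency. Genes scoring low in either fraction were dropped.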

SMILES: CC(C)n1nc(-c2cc3cc(O)ccc3[nH]2)c2c(N)ncnc21 [PP242]
- effect in renormalizing the translational profile of the gene (gene RPS6KA5 (ENSG00000100784)): + (+ = 0.9 to 1.5)
- effect in renormalizing the translational profile of the gene (gene RPS7 (ENSG00000171863)): − (− = <0.9)
- effect in renormalizing the translational profile of the gene (gene RPS8 (ENSG00000142937)): − (− = <0.9)
- effect in renormalizing the translational profile of the gene (gene RPS9 (ENSG00000170889)): − (− = <0.9)
- effect in renormalizing the translational profile of the gene (gene RPS10 (ENSG00000124614)): − (− = <0.9)
- effect in renormalizing the translational profile of the gene (gene RPS11 (ENSG00000142534)): − (− = <0.9)
- effect in renormalizing the translational profile of the gene (gene RPS12 (ENSG00000112306)): − (− = <0.9)
- effect in renormalizing the translational profile of the gene (gene RPS13 (ENSG00000110700)): − (− = <0.9)
- effect in renormalizing the translational profile of the gene (gene RPS14 (ENSG00000164587)): − (− = <0.9)
- effect in renormalizing the translational profile of the gene (gene RPS15 (ENSG00000115268)): + (+ = 0.9 to 1.5)
- effect in renormalizing the translational profile of the gene (gene RPS15A (ENSG00000134419)): + (+ = 0.9 to 1.5)
- effect in renormalizing the translational profile of the gene (gene RPS16 (ENSG00000105193)): − (− = <0.9)
- effect in renormalizing the translational profile of the gene (gene RPS18 (ENSG00000231500)): + (+ = 0.9 to 1.5)
- effect in renormalizing the translational profile of the gene (gene RPS19 (ENSG00000105372)): − (− = <0.9)
- effect in renormalizing the translational profile of the gene (gene RPS20 (ENSG00000008988)): − (− = <0.9)
- effect in renormalizing the translational profile of the gene (gene RPS21 (ENSG00000171858)): − (− = <0.9)
- effect in renormalizing the translational profile of the gene (gene RPS23 (ENSG00000186468)): − (− = <0.9)
- effect in renormalizing the translational profile of the gene (gene RPS24 (ENSG00000138326)): − (− = <0.9)
- effect in renormalizing the translational profile of the gene (gene RPS25 (ENSG00000118181)): − (− = <0.9)
- effect in renormalizing the translational profile of the gene (gene RPS26 (ENSG00000197728)): − (− = <0.9)
- effect in renormalizing the translational profile of the gene (gene RPS27 (ENSG00000177954)): − (− = <0.9)
- effect in renormalizing the translational profile of the gene (gene RPS27A (ENSG00000143947)): − (− = <0.9)
- effect in renormalizing the translational profile of the gene (gene RPS28 (ENSG00000233927)): + (+ = 0.9 to 1.5)
- effect in renormalizing the translational profile of the gene (gene RPS29 (ENSG00000213741)): + (+ = 0.9 to 1.5)
- effect in renormalizing the translational profile of the gene (gene RPSA (ENSG00000168028)): − (− = <0.9)
- effect in renormalizing the translational profile of the gene (gene RTN2 (ENSG00000125744)): − (− = <0.9)
- effect in renormalizing the translational profile of the gene (gene SEMA3A (ENSG00000075213)): − (− = <0.9)
- effect in renormalizing the translational profile of the gene (gene SGIP1 (ENSG00000118473)): − (− = <0.9)
- effect in renormalizing the translational profile of the gene (gene SH3BGR (ENSG00000185437)): − (− = <0.9)
- effect in renormalizing the translational profile of the gene (gene SHC3 (ENSG00000148082)): − (− = <0.9)
- effect in renormalizing the translational profile of the gene (gene SLC2A12 (ENSG00000146411)): − (− = <0.9)
- effect in renormalizing the translational profile of the gene (gene SLC7A7 (ENSG00000155465)): − (− = <0.9)
- effect in renormalizing the translational profile of the gene (gene SLC15A3 (ENSG00000110446)): − (− = <0.9)
- effect in renormalizing the translational profile of the gene (gene SLC25A6 (ENSG00000169100)): − (− = <0.9)
- effect in renormalizing the translational profile of the gene (gene SLC40A1 (ENSG00000138449)): − (− = <0.9)
- effect in renormalizing the translational profile of the gene (gene SMO (ENSG00000128602)): − (− = <0.9)
- effect in renormalizing the translational profile of the gene (gene SNRPA (ENSG00000077312)): − (− = <0.9)
- effect in renormalizing the translational profile of the gene (gene SOX5 (ENSG00000134532)): − (− = <0.9)
- effect in renormalizing the translational profile of the gene (gene SOX6 (ENSG00000110693)): − (− = <0.9)
- effect in renormalizing the translational profile of the gene (gene SPATA6 (ENSG00000132122)): + (+ = 0.9 to 1.5)
- effect in renormalizing the translational profile of the gene (gene STAMBPL1 (ENSG00000138134)): − (− = <0.9)
- effect in renormalizing the translational profile of the gene (gene STS (ENSG00000101846)): − (− = <0.9)
- effect in renormalizing the translational profile of the gene (gene SYNE2 (ENSG00000054654)): − (− = <0.9)
- effect in renormalizing the translational profile of the gene (gene TAF1D (ENSG00000166012)): − (− = <0.9)
- effect in renormalizing the translational profile of the gene (gene TDG (ENSG00000139372)): − (− = <0.9)
- effect in renormalizing the translational profile of the gene (gene TEN1 (ENSG00000257949)): − (− = <0.9)
- effect in renormalizing the translational profile of the gene (gene TET2 (ENSG00000168769)): − (− = <0.9)
- effect in renormalizing the translational profile of the gene (gene TET3 (ENSG00000187605)): − (− = <0.9)
- effect in renormalizing the translational profile of the gene (gene TGFBI (ENSG00000120708)): − (− = <0.9)
- effect in renormalizing the translational profile of the gene (gene THBS3 (ENSG00000169231)): + (+ = 0.9 to 1.5)
- effect in renormalizing the translational profile of the gene (gene THG1L (ENSG00000113272)): − (− = <0.9)
- effect in renormalizing the translational profile of the gene (gene TIMM9 (ENSG00000100575)): − (− = <0.9)
- effect in renormalizing the translational profile of the gene (gene TKT (ENSG00000163931)): − (− = <0.9)
- effect in renormalizing the translational profile of the gene (gene TMTC1 (ENSG00000133687)): − (− = <0.9)
- effect in renormalizing the translational profile of the gene (gene TOMM7 (ENSG00000196683)): − (− = <0.9)
- effect in renormalizing the translational profile of the gene (gene TOP2A (ENSG00000131747)): − (− = <0.9)
- effect in renormalizing the translational profile of the gene (gene TPGS1 (ENSG00000141933)): − (− = <0.9)
- effect in renormalizing the translational profile of the gene (gene TPM2 (ENSG00000198467)): − (− = <0.9)
- effect in renormalizing the translational profile of the gene (gene TPT1 (ENSG00000133112)): − (− = <0.9)
- effect in renormalizing the translational profile of the gene (gene TRERF1 (ENSG00000124496)): − (− = <0.9)
- effect in renormalizing the translational profile of the gene (gene UBA52 (ENSG00000221983)): − (− = <0.9)
- effect in renormalizing the translational profile of the gene (gene UQCRB (ENSG00000156467)): − (− = <0.9)
- effect in renormalizing the translational profile of the gene (gene UTRN (ENSG00000152818)): − (− = <0.9)
- effect in renormalizing the translational profile of the gene (gene VIM (ENSG00000026025)): − (− = <0.9)
- effect in renormalizing the translational profile of the gene (gene ZNF581 (ENSG00000171425)): − (− = <0.9)
- effect in renormalizing the translational profile of the gene (gene ZNF608 (ENSG00000168916)): − (− = <0.9)
